These results are taken from patent publication US12594268B2, “Methods of treating Fabry disease in patients having a mutation in the GLA gene” (Amicus Therapeutics, Inc., priority 2018, dated 2026).

What all share (assay type): cell-based
In experiment [1] the target is T1, α-Gal A mutant form G35A (Homo sapiens, UniProt P06280, G35A).
T1 construct: expressed in transfected cells; host or cells: HEK-293
T1 sequence (P06280 32-429 G35A): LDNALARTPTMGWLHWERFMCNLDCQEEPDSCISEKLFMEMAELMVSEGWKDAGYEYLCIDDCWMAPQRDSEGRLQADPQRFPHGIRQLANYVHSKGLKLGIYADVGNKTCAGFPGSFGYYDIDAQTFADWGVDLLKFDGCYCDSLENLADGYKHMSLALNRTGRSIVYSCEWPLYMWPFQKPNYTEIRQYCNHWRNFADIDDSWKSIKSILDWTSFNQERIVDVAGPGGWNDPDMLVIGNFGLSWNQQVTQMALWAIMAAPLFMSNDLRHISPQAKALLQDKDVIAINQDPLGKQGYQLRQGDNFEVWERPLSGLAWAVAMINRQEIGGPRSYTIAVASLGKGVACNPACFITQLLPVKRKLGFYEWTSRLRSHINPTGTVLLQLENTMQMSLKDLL
In words: α-Gal A activity in lysates of transfected HEK-293 cells, G35A. On the procedure: (§1) Baseline and 10 μM migalastat α-Gal A activity: Differences in the α-Gal A activity between lysates incubated in the absence and presence of 10 μM migalastat were determined using a one-tailed, Mann Whitney U test; an increase at 10 μM migalastat with a p<0.05 was considered significant.
(§2) 10 μM migalastat α-Gal A activity (% WT)=(α-Gal A activity in mutant transfected cell lysates incubated with 10 μM migalastat÷α-Gal A activity in wild-type transfected cell lysates without migalastat)*100.
(§3) Absolute increase (% WT)=is the 10 μM migalastat α-Gal A activity (% WT) minus the baseline α-Gal A activity (% WT).
(§4) Relative increase is the 10 μM migalastat α-Gal A activity in mutant transfected cell lysates÷baseline α-Gal A activity in mutant transfected cell lysates incubated without migalastat.

Experiment [2] deals with T2, α-Gal A mutant form G80V (Homo sapiens, UniProt P06280, G80V).
T2 construct: expressed in transfected cells; host or cells: HEK-293
T2 sequence (P06280 32-429 G80V): T1 sequence (P06280 32-429 G35A) with A4G, G49V
Description: α-Gal A activity in lysates of transfected HEK-293 cells, G80V. On the procedure:
as §1, §2, §3, §4

Experiment [3] addresses T3, α-Gal A mutant form Y152D (Homo sapiens, UniProt P06280, Y152D).
T3 construct: expressed in transfected cells; host or cells: HEK-293
T3 sequence (P06280 32-429 Y152D): T1 sequence (P06280 32-429 G35A) with A4G, Y121D
In words: α-Gal A activity in lysates of transfected HEK-293 cells, Y152D. How it is done: as §1, §2, §3, §4

Experiment [4] addresses T4, α-Gal A mutant form L189F (Homo sapiens, UniProt P06280, L189F).
T4 construct: expressed in transfected cells; host or cells: HEK-293
T4 sequence (P06280 32-429 L189F): T1 sequence (P06280 32-429 G35A) with A4G, L158F
Description: α-Gal A activity in lysates of transfected HEK-293 cells, L189F. How it is done: as §1, §2, §3, §4

The target of experiment [5] is T5, α-Gal A mutant form S238G (Homo sapiens, UniProt P06280, S238G).
T5 construct: expressed in transfected cells; host or cells: HEK-293
T5 sequence (P06280 32-429 S238G): T1 sequence (P06280 32-429 G35A) with A4G, S207G
Description: α-Gal A activity in lysates of transfected HEK-293 cells, S238G. How it is done: as §1, §2, §3, §4

[6] abbreviates: 10 μM migalastat minus baseline.
[7] abbreviates: 10 μM migalastat ÷ baseline activity.
The mark [8] stands for this setting: HEK-293 lysates, 10 μM migalastat, 5 days, mean ± SEM.

Changes are numbered by the printed parent chain.

As for `OC[C@H]1NC[C@H](O)[C@@H](O)[C@H]1O` [migalastat, (2R,3S,4R,5S)-2-(hydroxymethyl) piperdine-3,4,5-triol], the “Absolute increase (% WT)” value in experiment [1] (setting [6]) is recorded as 31.0 % WT; in experiment [2] (setting [6]), 4.3 % WT; in experiment [3] (setting [6]), 10.7 % WT; in experiment [4] (setting [6]), 15.3 % WT; in experiment [5] (setting [6]), 67.7 % WT. The Relative increase in experiment [1] (setting [7]) came to 1.61; in experiment [2] (setting [7]) it was 3.18; in experiment [3] (setting [7]) it was 2.75; in experiment [4] (setting [7]) it was 1.22; in experiment [5] (setting [7]), 4.26. Further, the “10 nM migalastat α-Gal A activity” value in experiment [1] (HEK-293 lysates, 10 nM migalastat as printed, 5 days, mean ± SEM) is 31694 ± 1949 nmol/mg/h. The “10 μM migalastat α-Gal A activity (% WT)” value turned out to be 82.1 ±5.6 % WT in experiment [1] (setting [8]); 6.4 ± 0.6 % WT in experiment [2] (setting [8]); 16.7 ± 1.1 % WT in experiment [3] (setting [8]); 84.6 ± 3.8 % WT in experiment [4] (setting [8]); 86.4 ± 7.2 % WT in experiment [5] (setting [8]). The “10 μM migalastat α-Gal A activity” value in experiment [2] (setting [8]) worked out at 2434 ± 333 nmol/mg/h; in experiment [3] (setting [8]), 6594 ± 294 nmol/mg/h; in experiment [4] (setting [8]), 27388 ± 1605 nmol/mg/h; in experiment [5] (setting [8]), 25106 ± 1611 nmol/mg/h.
